Laboratory results as given in patent US7084148B2, “Substituted pyrimidines as selective cyclooxygenase-2 inhibitors” (SmithKline Beecham Corporation, priority 2000, dated 2006).

How the values were obtained:
[1] = target: T1, human COX-2 (Homo sapiens, UniProt P35354); assay: Inhibition of PGE2 release in COS cells stably transfected with human COX-2; type: cell-based; conditions: 30 μM arachidonic acid
T1 construct: expressed in transfected cells
T1 sequence (P35354 18-604): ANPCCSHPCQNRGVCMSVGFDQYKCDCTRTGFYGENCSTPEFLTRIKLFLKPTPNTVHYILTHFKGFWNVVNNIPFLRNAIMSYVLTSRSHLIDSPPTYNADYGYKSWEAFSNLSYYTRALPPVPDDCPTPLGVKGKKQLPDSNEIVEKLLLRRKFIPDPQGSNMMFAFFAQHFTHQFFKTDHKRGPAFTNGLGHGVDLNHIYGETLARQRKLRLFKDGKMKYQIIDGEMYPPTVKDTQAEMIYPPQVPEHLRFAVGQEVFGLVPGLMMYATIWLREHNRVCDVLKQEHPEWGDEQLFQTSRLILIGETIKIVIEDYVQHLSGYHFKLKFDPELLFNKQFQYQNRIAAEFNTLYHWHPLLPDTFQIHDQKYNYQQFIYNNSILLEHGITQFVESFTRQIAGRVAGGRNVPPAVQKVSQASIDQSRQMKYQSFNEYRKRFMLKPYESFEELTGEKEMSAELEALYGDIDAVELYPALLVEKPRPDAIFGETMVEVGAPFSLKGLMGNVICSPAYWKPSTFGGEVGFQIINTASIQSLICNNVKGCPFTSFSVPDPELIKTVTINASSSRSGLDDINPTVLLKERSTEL
Protocol: (§1) Inhibitory activity against human COX-1 and COX-2 was assessed in COS cells which had been stably transfected with cDNA for human COX-1 and human COX-2. 24 Hours prior to experiment, COS cells were transferred from the 175 cm^2 flasks in which they were grown, onto 24-well cell culture plates using the following procedure. The incubation medium (Dulbecco's modified eagles medium (DMEM) supplemented with heat-inactivated foetal calf serum (10% v/v), penicillin (100 IU/ml), streptomycin (100 μg/ml) and geneticin (600 μg/ml)) was removed from a flask of confluent cells (1 flask at confluency contains approximately 1×10^7 cells). 5 ml of phosphate buffered saline (PBS) was added to the flask to wash the cells. Having discarded the PBS, cells were then incubated with 5 ml trypsin for 5 minutes in an incubator […]. The flask was then removed from the incubator and 5 ml of fresh incubation medium was added. The contents of the flask was transferred to a 250 ml sterile container and the volume of incubation medium subsequently made up to 100 ml. 1 ml cell suspension was pipetted into each well of 4×24-well cell culture plates. The plates were then placed in an incubator (37° C., 95% air/5% CO2) overnight. If more than 1 flask of cells were required, the cells from the individual flasks were combined before being dispensed into the 24-well plates.
Following the overnight incubation, the incubation medium was completely removed from the 24-well cell culture plates and replaced with 250 μl fresh DMEM (37° C.). The test compounds were made up to 250× the required test concentration in DMSO and were added to the wells in a volume of 1 μl. Plates were then mixed gently by swirling and then placed in an incubator for 1 hour (37° C., 95% air/5% CO2). […] Plates were then incubated for a further 10 minutes, after which the incubation medium was removed from each well of the plates and stored at −20° C., prior to determination of prostaglandin E2 (PGE2) levels using enzyme immunoassay. […] The selectivity ratio of inhibition of COX-1 versus COX-2 was calculated by comparing respective IC50 values.

[2] = target: T2, human COX-1 (Homo sapiens, UniProt P23219); assay: Inhibition of PGE2 release in COS cells stably transfected with human COX-1; type: cell-based; conditions: 30 μM arachidonic acid
T2 construct: expressed in transfected cells
T2 sequence (P23219 24-599): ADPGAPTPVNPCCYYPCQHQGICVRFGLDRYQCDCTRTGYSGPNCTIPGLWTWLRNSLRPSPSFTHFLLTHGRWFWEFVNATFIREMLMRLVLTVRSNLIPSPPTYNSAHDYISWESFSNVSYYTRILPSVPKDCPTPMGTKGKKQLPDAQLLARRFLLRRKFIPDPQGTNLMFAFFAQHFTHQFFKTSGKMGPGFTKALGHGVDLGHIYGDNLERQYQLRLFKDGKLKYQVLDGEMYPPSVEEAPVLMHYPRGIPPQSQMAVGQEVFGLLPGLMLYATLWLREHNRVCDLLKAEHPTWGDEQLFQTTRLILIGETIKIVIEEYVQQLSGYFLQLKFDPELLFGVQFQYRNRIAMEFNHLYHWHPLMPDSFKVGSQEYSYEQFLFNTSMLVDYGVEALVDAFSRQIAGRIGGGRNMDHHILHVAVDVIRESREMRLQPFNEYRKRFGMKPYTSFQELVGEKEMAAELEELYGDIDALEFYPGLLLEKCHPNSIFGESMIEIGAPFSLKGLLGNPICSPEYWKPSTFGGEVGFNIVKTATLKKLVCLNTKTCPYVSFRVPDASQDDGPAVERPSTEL
Protocol: as §1
Following the overnight incubation, the incubation medium was completely removed from the 24-well cell culture plates and replaced with 250 μl fresh DMEM (37° C.). The test compounds were made up to 250× the required test concentration in DMSO and were added to the wells in a volume of 1 μl. Plates were then mixed gently by swirling and then placed in an incubator for 1 hour (37° C., 95% air/5% CO2). Following the incubation period, 10 μl of arachidonic acid (750 μM) was added to each well to give a final arachidonic acid concentration of 30 μM. Plates were then incubated for a further 10 minutes, after which the incubation medium was removed from each well of the plates and stored at −20° C., prior to determination of prostaglandin E2 (PGE2) levels using enzyme immunoassay. The inhibitory potency of the test compound was expressed as an IC50 value, which is defined as the concentration of the compound required to inhibit the PGE2 release from the cells by 50%. The selectivity ratio of inhibition of COX-1 versus COX-2 was calculated by comparing respective IC50 values.

Row | SMILES | IC50 [1] [nM] | IC50 [2] [nM]
1 | CS(=O)(=O)c1ccc(-c2cc(C(F)(F)F)nc(NC3CCOCC3)n2)cc1 [Example 1, 4-[4-(methylsulfonyl)phenyl]-N-tetrahydro-2H-pyran-4-yl-6-(trifluoromethyl)pyrimidin-2-amine] | 18 | > 91000
2 | CN(c1nc(-c2ccc(S(C)(=O)=O)cc2)cc(C(F)(F)F)n1)C1CCOCC1 [Example 2, 4-[4-(Methylsulfonyl)phenyl]-N-methyl-N-tetrahydro-2H-pyran-4-yl-6-(trifluoromethyl)pyrimidin-2-amine] | 16.8 | 60400
3 | CCN(c1nc(-c2ccc(S(C)(=O)=O)cc2)cc(C(F)(F)F)n1)C1CCOCC1 [Example 3, 4-[4-(Methylsulfonyl)phenyl]-N-ethyl-N-tetrahydro-2H-pyran-4-yl-6-(trifluoromethyl)pyrimidin-2-amine] | 24.9 | 69700
4 | CCCCN(c1nc(-c2ccc(S(C)(=O)=O)cc2)cc(C(F)(F)F)n1)C1CCOCC1 [Example 4, 4-[4-(Methylsulfonyl)phenyl]-N-butyl-N-tetrahydro-2H-pyran-4-yl-6-(trifluoromethyl)pyrimidin-2-amine] | 143 | 71800
